# Measured values as given in US20260070885A1, “TRKA (G667C) AND FLT3 TARGET INHIBITOR AND COMBINATION OF SAME WITH CHIDAMIDE” (SHENZHEN CHIPSCREEN BIOSCIENCES CO., LTD., priority 2022, published 2026).
# How the values were obtained:
# FLT3 (D835Y) = FLT3 (D835Y) (Homo sapiens (Human), UniProt P36888, D835Y); assay: HTRF kinase inhibition assay, FLT3 (D835Y); format: biochemical; settings: ATP 0.5 μM
# Description: (§1) The inhibition of the kinases TRKA (G667C), FLT3, and FLT3 (D835Y) by the compound N-[4-(6-fluoro-1H-2-benzimidazolyl)benzyl]-(E)-3-(pyridin-3-yl)acrylamide of the present disclosure (hereinafter referred to as compound A) was assessed using a homogeneous time-resolved fluorescence (HTRF) method based on biochemical levels.
# (§2) HTRF is a technology used for detecting a test substance in a pure liquid phase system. Based on two major technologies: fluorescence resonance energy transfer (FRET) and time-resolved fluorescence (TRF), the generated fluorescence intensity was measured using a microplate reader, and the ratio 665 nm/620 nm reflected the extent to which compound A inhibited the activity of the kinases TRKA (G667C), FLT3, and FLT3 (D835Y).
# (§3) a) Preparation of compound A or chidamide: The starting stock solution concentration of compound A or chidamide was 20 mM. The stock solution was serially diluted with the solvent 100% DMSO to 0.2 mM, which was 200 times the assay starting concentration.
# (§4) b) A kinase reaction buffer Assay Buffer was prepared using the following formula: […]
# (§5) 4) After the 384-well plate was centrifuged at 1000 rpm for 30 s and shaken for thorough mixing, the fluorescence intensities at 665 nm and 620 nm were measured using EnVision, and the TR-FRET ratio (665 nm/620 nm) was calculated. […]
# TRKA (G667C) = TRKA (G667C) (Homo sapiens (Human), UniProt P04629, G667C); assay: HTRF kinase inhibition assay, TRKA (G667C); format: biochemical; settings: ATP 0.5 μM
# Chain of TRKA (G667C) (P04629 33-796 G667C): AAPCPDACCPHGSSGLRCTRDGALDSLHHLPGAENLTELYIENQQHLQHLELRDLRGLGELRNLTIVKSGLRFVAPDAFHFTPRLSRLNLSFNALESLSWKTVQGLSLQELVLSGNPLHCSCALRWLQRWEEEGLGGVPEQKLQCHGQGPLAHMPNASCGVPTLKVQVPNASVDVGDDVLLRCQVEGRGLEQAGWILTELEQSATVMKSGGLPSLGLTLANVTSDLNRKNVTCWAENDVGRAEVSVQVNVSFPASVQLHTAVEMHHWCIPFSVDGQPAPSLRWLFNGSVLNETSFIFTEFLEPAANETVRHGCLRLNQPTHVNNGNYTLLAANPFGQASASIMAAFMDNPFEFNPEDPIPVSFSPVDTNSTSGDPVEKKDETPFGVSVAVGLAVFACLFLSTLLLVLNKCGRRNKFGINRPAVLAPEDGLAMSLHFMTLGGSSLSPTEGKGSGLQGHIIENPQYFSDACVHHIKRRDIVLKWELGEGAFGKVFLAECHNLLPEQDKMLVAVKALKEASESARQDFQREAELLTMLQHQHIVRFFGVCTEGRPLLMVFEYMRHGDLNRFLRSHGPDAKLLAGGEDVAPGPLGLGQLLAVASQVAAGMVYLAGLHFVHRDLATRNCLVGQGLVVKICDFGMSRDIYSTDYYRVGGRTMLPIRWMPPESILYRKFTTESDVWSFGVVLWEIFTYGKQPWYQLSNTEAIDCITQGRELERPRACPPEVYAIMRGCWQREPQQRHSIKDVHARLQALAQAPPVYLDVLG
# Description: as §1, §2, §3, §4, §5
# SHP77 cells = assay: Viability of SHP77 cells (MTS assay); format: cell-based; settings: 72 h
# Description: The SHP77 cell line was purchased from the American Type Culture Collection (ATCC) and cultured in an RPMI-1640 culture medium (Hyclone) containing 1% dual antibiotics (penicillin-streptomycin, Hyclone) and 10% fetal bovine serum (Gibco).
# Compound A (N-[4-(6-Fluoro-1H-2-benzimidazolyl)benzyl]-(E)-3-(pyridin-3-yl)acrylamide) and chidamide were both from Shenzhen Chipscreen Biosciences Co., Ltd. The compound and chidamide were dissolved in dimethyl sulfoxide (DMSO, Shanghai Sangon, DN3039A) to prepare 20 mM working mother liquors, and the mother liquors were stored in a freezer at −20° C. before use. When in use, the mother liquors were diluted to prepare working solutions with corresponding final concentrations according to the needs of each experiment.
# MTS solution: 42 mg of MTS Reagent Powder was placed in a light shielding container, and 21 mL of PBS was added. The mixture was gently stirred on a magnetic stirrer for 15 min until MTS was completely dissolved. The pH of the solution was measured. If the pH was higher than 6.5, the pH of the solution was adjusted to 6.5 with 1 M HCl. The solution was sterilized by filtration through a 0.2 μm filter and stored at −20° C. in a dark place.
# PMS solution: […] of PMS was added to 21.7 mL of PBS to prepare a 150 μM stock solution, and the stock solution was sterilized by filtration, aliquoted, and stored at −20° C. in a dark place.
# 2.2. […]
# 2.4. […] After the plate was incubated for about 1 h, the absorbance at 490 nm in each well was measured using a microplate reader.
# The reading of the BLANK well was OD490-BLANK (background value). The background value was subtracted from the readings of the wells to obtain the absorbance values of the administration wells, OD490-T, and the absorbance values of the control wells in which the drug concentration was 0, OD490-T0. With the cell viability of the control wells defined as 100%, the relative cell survival rate in each administration well was calculated using the formula: relative cell survival rate (%)=(OD490-T/OD490-T0)×100%.
# FLT3 = FLT3 (Homo sapiens (Human), UniProt P36888); assay: HTRF kinase inhibition assay, FLT3; format: biochemical; settings: ATP 2 μM
# Description: as §1, §2, §3, §4, §5
IC50 (FLT3 (D835Y)),IC50 (TRKA (G667C)),IC50 (FLT3),SMILES,relative cell survival rate (SHP77 cells; compound A alone 0.625 μM),relative cell survival rate (SHP77 cells; compound A alone 1.25 μM),relative cell survival rate (SHP77 cells; chidamide alone 0.5 μM)
104 nM,40.7 nM,143 nM,"O=C(/C=C/c1cccnc1)NCc1ccc(-c2nc3ccc(F)cc3[nH]2)cc1 [Compound A, N-[4-(6-fluoro-1H-2-benzimidazolyl)benzyl]-(E)-3-(pyridin-3-yl)acrylamide]",77.43±1.18%,44.09±6.59%,
> 1000 nM,> 1000 nM,> 1000 nM,"Nc1cc(F)ccc1NC(=O)c1ccc(CNC(=O)/C=C/c2cccnc2)cc1 [Chidamide, N-(2-amino-4-fluorophenyl)-4-[N-[(E)-3-(pyridin-3-yl)acryloyl]aminomethyl]benzamide]",,,95.45±0.81%
